Laboratory results taken from ChEMBL document CHEMBL1201862, “PubChem BioAssay data set” (2004).
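Exposure lasted 48 hours, with cells grown in 96-well plates and compounds tested at five concentrations. GI50 = concentration required for 50% inhibition of growth.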 Active and inactive are the calls of the source. Cut-off read from the data, not from the text of the source: active = GI50 up to about 1.1 µM and inactive = higher.

Assays:
Experiment in all cases: NCI-60 cell line screen, 48 h
OVCAR-8 = test system: OVCAR-8
HCT-116 = test system: HCT-116
DLD-1 = test system: DLD-1
XF498 = test system: XF498
SK-MEL-2 = test system: SK-MEL-2
A549 = test system: A549
EKVX = test system: EKVX
HOP-62 = test system: HOP-62
MDA-MB-231 = test system: MDA-MB-231
HCT-15 = test system: HCT-15
NCI-H522 = test system: NCI-H522
KM12 = test system: KM12
OVCAR-5 = test system: OVCAR-5
LOX IMVI = test system: LOX IMVI
Hs-578T = test system: Hs-578T
SK-OV-3 = test system: SK-OV-3
KM-20L2 = test system: KM-20L2
RXF 393 = test system: RXF 393
PC-3 = test system: PC-3
SK-MEL-5 = test system: SK-MEL-5
RXF 631 = test system: RXF 631
UACC-62 = test system: UACC-62
SN12C = test system: SN12C
RPMI-8226 = test system: RPMI-8226
MDA-N = test system: MDA-N
IGROV-1 = test system: IGROV-1
K562 = test system: K562
DMS-114 = test system: DMS-114
SR = test system: SR
CAKI-1 = test system: CAKI-1
MDA-MB-435 = test system: MDA-MB-435
CCRF-CEM = test system: CCRF-CEM
SK-MEL-28 = test system: SK-MEL-28
HCC 2998 = test system: HCC 2998
NCI-H23 = test system: NCI-H23
Malme-3M = test system: Malme-3M
MOLT-4 = test system: MOLT-4
HOP-92 = test system: HOP-92
SNB-19 = test system: SNB-19
SNB-78 = test system: SNB-78
T47D = test system: T47D
ACHN = test system: ACHN
M19-MEL = test system: M19-MEL
MCF7 = test system: MCF7
OVCAR-4 = test system: OVCAR-4
SF-295 = test system: SF-295
A498 = test system: A498
SW-620 = test system: SW-620
HL-60 = test system: HL-60
UACC-257 = test system: UACC-257
SF-539 = test system: SF-539
NCI/ADR-RES = test system: NCI/ADR-RES
786-0 = test system: 786-0
M14 = test system: M14
SF-268 = test system: SF-268
TK-10 = test system: TK-10
HT-29 = test system: HT-29
NCI-H226 = test system: NCI-H226
COLO 205 = test system: COLO 205
UO-31 = test system: UO-31
U-251 = test system: U-251
LXFL 529 = test system: LXFL 529
SNB-75 = test system: SNB-75
BT-549 = test system: BT-549
DMS-273 = test system: DMS-273
NCI-H460 = test system: NCI-H460
DU-145 = test system: DU-145
OVCAR-3 = test system: OVCAR-3
HOP-18 = test system: HOP-18

With `O=C1C(CO)=C(CO)C(=O)c2c(O)ccc(O)c21` the GI50 (OVCAR-8) was 942 nM (active), the GI50 (HCT-116) was 218 nM (active) and the GI50 (DLD-1) was 65.3 nM (active). The GI50 (XF498) was 247 nM (active), the GI50 (SK-MEL-2) was 1050 nM (active) and the GI50 (A549) was 1640 nM (inactive). For the same molecule, the GI50 (EKVX) was 2250 nM (inactive), the GI50 (HOP-62) was 1040 nM (active) and the GI50 (MDA-MB-231) was 1350 nM (inactive). For the same molecule, the GI50 (HCT-15) was 214 nM, the GI50 (NCI-H522) was 89.7 nM (active) and the GI50 (KM12) was 1610 nM (inactive). The GI50 (OVCAR-5) was 2080 nM (inactive), the GI50 (LOX IMVI) was 252 nM (active) and the GI50 (Hs-578T) was 1450 nM (inactive). The GI50 (SK-OV-3) was 7230 nM (inactive), the GI50 (KM-20L2) was 498 nM (active) and the GI50 (RXF 393) was 390 nM (active). The GI50 (PC-3) was 1970 nM (inactive), the GI50 (SK-MEL-5) was 394 nM (active) and the GI50 (RXF 631) was 1260 nM (inactive). The GI50 (UACC-62) was 782 nM (active), the GI50 (SN12C) was 287 nM (active) and the GI50 (RPMI-8226) was 117 nM (active). For the same molecule, the GI50 (MDA-N) was 236 nM (active), the GI50 (IGROV-1) was 1680 nM (inactive) and the GI50 (K562) was 87.7 nM (active). For the same molecule, the GI50 (DMS-114) was 240 nM (active), the GI50 (SR) was 90.2 nM (active) and the GI50 (CAKI-1) was 387 nM (active). For the same molecule, the GI50 (MDA-MB-435) was 472 nM (active), the GI50 (CCRF-CEM) was 57.5 nM (active) and the GI50 (SK-MEL-28) was 391 nM (active). The GI50 (HCC 2998) was 2060 nM (inactive), the GI50 (NCI-H23) was 389 nM (active) and the GI50 (Malme-3M) was 217 nM (active). For the same molecule, the GI50 (MOLT-4) was 49.7 nM (active), the GI50 (HOP-92) was 261 nM (active) and the GI50 (SNB-19) was 2880 nM (inactive). The GI50 (SNB-78) was 1700 nM (inactive), the GI50 (T47D) was 363 nM (active) and the GI50 (ACHN) was 337 nM (active). The GI50 (M19-MEL) was 71.9 nM (active), the GI50 (MCF7) was 118 nM (active) and the GI50 (OVCAR-4) was 234 nM (active). For the same molecule, the GI50 (SF-295) was 1690 nM (inactive), the GI50 (A498) was 1690 nM (inactive) and the GI50 (SW-620) was 82 nM (active). For the same molecule, the GI50 (HL-60) was 43 nM (active), the GI50 (UACC-257) was 349 nM (active) and the GI50 (SF-539) was 705 nM (active). For the same molecule, the GI50 (NCI/ADR-RES) was 1040 nM (active), the GI50 (786-0) was 361 nM (active) and the GI50 (M14) was 143 nM (active). The GI50 (SF-268) was 649 nM (active), the GI50 (TK-10) was 352 nM (active) and the GI50 (HT-29) was 105 nM (active). The GI50 (NCI-H226) was 2150 nM (inactive), the GI50 (COLO 205) was 40.8 nM (active) and the GI50 (UO-31) was 1000 nM (active). The GI50 (U-251) was 2220 nM (inactive), the GI50 (LXFL 529) was 177 nM (active) and the GI50 (SNB-75) was 388 nM (active). For the same molecule, the GI50 (BT-549) was 204 nM (active), the GI50 (DMS-273) was 369 nM (active) and the GI50 (NCI-H460) was 923 nM (active). The GI50 (DU-145) was 1850 nM (inactive) and the GI50 (OVCAR-3) was 655 nM (active).

For `CCOc1ccccc1N1C(=O)C(=O)C(c2nc3ccccc3o2)C(=O)C1=O`, the GI50 (OVCAR-8) was 70500 nM (inactive), the GI50 (HCT-116) was 70500 nM (inactive) and the GI50 (DLD-1) was > 100000 nM (inactive). For the same molecule, the GI50 (SK-MEL-2) was > 100000 nM (inactive), the GI50 (A549) was 48600 nM (inactive) and the GI50 (EKVX) was 71900 nM (inactive). The GI50 (HOP-62) was > 100000 nM (inactive), the GI50 (HCT-15) was over 100000 nM and the GI50 (NCI-H522) was > 100000 nM (inactive). The GI50 (OVCAR-5) was > 100000 nM (inactive), the GI50 (LOX IMVI) was > 100000 nM (inactive) and the GI50 (SK-OV-3) was 28600 nM (inactive). The GI50 (KM-20L2) was > 100000 nM (inactive), the GI50 (SK-MEL-5) was > 100000 nM (inactive) and the GI50 (RXF 631) was > 100000 nM (inactive). The GI50 (UACC-62) was > 100000 nM (inactive), the GI50 (SN12C) was 93800 nM (inactive) and the GI50 (RPMI-8226) was > 100000 nM (inactive). For the same molecule, the GI50 (IGROV-1) was > 100000 nM (inactive), the GI50 (K562) was > 100000 nM (inactive) and the GI50 (DMS-114) was > 100000 nM (inactive). The GI50 (SR) was > 100000 nM (inactive), the GI50 (CAKI-1) was 66800 nM (inactive) and the GI50 (CCRF-CEM) was > 100000 nM (inactive). The GI50 (SK-MEL-28) was > 100000 nM (inactive), the GI50 (HCC 2998) was > 100000 nM (inactive) and the GI50 (NCI-H23) was > 100000 nM (inactive). For the same molecule, the GI50 (Malme-3M) was > 100000 nM (inactive), the GI50 (MOLT-4) was > 100000 nM (inactive) and the GI50 (HOP-92) was > 100000 nM (inactive). For the same molecule, the GI50 (SNB-19) was > 100000 nM (inactive), the GI50 (SNB-78) was > 100000 nM (inactive) and the GI50 (ACHN) was 28300 nM (inactive). The GI50 (M19-MEL) was > 100000 nM (inactive), the GI50 (OVCAR-4) was 15700 nM (inactive) and the GI50 (SF-295) was 20800 nM (inactive). The GI50 (A498) was 48600 nM (inactive), the GI50 (SW-620) was > 100000 nM (inactive) and the GI50 (HL-60) was > 100000 nM (inactive). For the same molecule, the GI50 (UACC-257) was > 100000 nM (inactive), the GI50 (SF-539) was > 100000 nM (inactive) and the GI50 (HOP-18) was 28700 nM (inactive). The GI50 (786-0) was 21200 nM (inactive), the GI50 (M14) was > 100000 nM (inactive) and the GI50 (SF-268) was > 100000 nM (inactive). For the same molecule, the GI50 (TK-10) was 39700 nM (inactive), the GI50 (HT-29) was > 100000 nM (inactive) and the GI50 (NCI-H226) was > 100000 nM (inactive). The GI50 (COLO 205) was > 100000 nM (inactive), the GI50 (UO-31) was 61500 nM (inactive) and the GI50 (U-251) was > 100000 nM (inactive). The GI50 (LXFL 529) was > 100000 nM (inactive), the GI50 (SNB-75) was 42600 nM (inactive) and the GI50 (DMS-273) was > 100000 nM (inactive). For the same molecule, the GI50 (OVCAR-3) was > 100000 nM (inactive).
